Experimental data reported in PubChem BioAssay (NCI).
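Each compound was tested at five concentrations against cells in 96-well plates for 48 hours. TGI marks complete inhibition of growth.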

Columns and labels:
Experiment in all cases: NCI tumour cell line growth inhibition, 48 h
786-0 renal = test system: 786-0 renal
A498 renal = test system: A498 renal
A549 NSCLC = test system: A549 NSCLC
ACHN renal = test system: ACHN renal
BT-549 breast = test system: BT-549 breast
CAKI-1 renal = test system: CAKI-1 renal
CCRF-CEM leukemia = test system: CCRF-CEM leukemia
COLO 205 colon = test system: COLO 205 colon
DU-145 prostate = test system: DU-145 prostate
EKVX NSCLC = test system: EKVX NSCLC
HCC-2998 colon = test system: HCC-2998 colon
HCT-116 colon = test system: HCT-116 colon
HCT-15 colon = test system: HCT-15 colon
HL-60(TB) leukemia = test system: HL-60(TB) leukemia
HOP-62 NSCLC = test system: HOP-62 NSCLC
HOP-92 NSCLC = test system: HOP-92 NSCLC
HS 578T breast = test system: HS 578T breast
HT29 colon = test system: HT29 colon
IGROV1 ovarian = test system: IGROV1 ovarian
K-562 leukemia = test system: K-562 leukemia
KM12 colon = test system: KM12 colon
M14 melanoma = test system: M14 melanoma
MALME-3M melanoma = test system: MALME-3M melanoma
MCF7 breast = test system: MCF7 breast
MDA-MB-231 breast = test system: MDA-MB-231 breast
MDA-MB-435 = test system: MDA-MB-435
MDA-N = test system: MDA-N
MOLT-4 leukemia = test system: MOLT-4 leukemia
NCI/ADR-RES ovarian = test system: NCI/ADR-RES ovarian
OVCAR-3 ovarian = test system: OVCAR-3 ovarian
OVCAR-4 ovarian = test system: OVCAR-4 ovarian
OVCAR-8 ovarian = test system: OVCAR-8 ovarian
PC-3 prostate = test system: PC-3 prostate
RPMI-8226 leukemia = test system: RPMI-8226 leukemia
SF-268 CNS = test system: SF-268 CNS
SF-295 CNS = test system: SF-295 CNS
SF-539 CNS = test system: SF-539 CNS
SK-MEL-28 melanoma = test system: SK-MEL-28 melanoma
SK-MEL-5 melanoma = test system: SK-MEL-5 melanoma
SK-OV-3 ovarian = test system: SK-OV-3 ovarian
SN12C renal = test system: SN12C renal
SNB-19 CNS = test system: SNB-19 CNS
SNB-75 CNS = test system: SNB-75 CNS
SR leukemia = test system: SR leukemia
SW-620 colon = test system: SW-620 colon
T-47D breast = test system: T-47D breast
TK-10 renal = test system: TK-10 renal
U251 CNS = test system: U251 CNS
UACC-257 melanoma = test system: UACC-257 melanoma
UACC-62 melanoma = test system: UACC-62 melanoma

Measured: TGI

CCOC(=O)C1c2[nH]c3ccccc3c2CCN1C(=O)c1ccco1 (stereo not given)
> 10 µM: all assays above
